Earlier results, collected in PubChem BioAssay AID1259409 (Chemical Carcinogenesis Research Information System (CCRIS), 2018).

System: rodent chemically induced tumor inhibition, incidence and multiplicity
Assay: CCRIS tumor inhibitor studies
Details: Route [Inhibitor]: DERMAL, Species: MOUSE

**Q.** Which results are given for `O=C(O)c1cc(O)c(O)c(O)c1`?
**A.** tumour outcome (control, treated, inhibition, significance) (Carcinogen: 7,12-DIMETHYLBENZ[A]ANTHRACENE, 57-97-6, Dose [Inhibitor]: 0, 12 MG 2/WK FOR 30 WK APPLIED 20 MIN PRIOR TO EACH PROMOTER DOSE (STUDY DURATION: 32 WK), Strain/Sex: SENCAR/FEMALE, Target Tissue: Type of Lesion: SKIN: PAPILLOMA, Dose [Carcinogen]: 25 NMOL ONCE, Promoter: M-CHLOROPEROXYBENZOIC ACID, 937-14-4): 39%, 3%, 92%, not calculated; tumour outcome (control, treated, inhibition, significance) (Carcinogen: 7,12-DIMETHYLBENZ[A]ANTHRACENE, 57-97-6, Dose [Inhibitor]: 0, 20 UMOL IN 0.4 ML ACETONE 20 MIN PRIOR TO EACH PROMOTER DOSE (STUDY DURATION: 47 WK), Strain/Sex: CF-1/FEMALE, Target Tissue: Type of Lesion: SKIN: CARCINOMA, Dose [Carcinogen]: 100 NMOL IN 0.2 ML ACETONE ONCE): 67%, 28%, 58%, p<0.005; tumour outcome (control, treated, inhibition, significance) (Carcinogen: 7,12-DIMETHYLBENZ[A]ANTHRACENE, 57-97-6, Dose [Inhibitor]: 0, 20 UMOL IN 0.4 ML ACETONE 20 MIN PRIOR TO EACH PROMOTER DOSE (STUDY DURATION: 47 WK), Strain/Sex: CF-1/FEMALE, Target Tissue: Type of Lesion: SKIN: PAPILLOMA, Dose [Carcinogen]: 100 NMOL IN 0.2 ML ACETONE ONCE): 94%, 80%, 15%, not calculated; tumour outcome (control, treated, inhibition, significance) (Carcinogen: BENZO[A]PYRENE, 50-32-8, Dose [Inhibitor]: 1% AQUEOUS SOLUTION 3/WK FOR A TOTAL OF 80 APPLICATIONS BEGINNING POST CARCINOGEN DOSE (STUDY DURATION: 567-580 D), Strain/Sex: CD-1/MALE, FEMALE, Target Tissue: Type of Lesion: SKIN: TUMOR, Dose [Carcinogen]: 0.53-0.6 MG ONCE, Promoter: NONE USED): 15/50 (30%), 15/50 (30%), 0%, not significant
